Structures can show the parent of a compound that is named as a salt.

The values below come from US5712417A, “Inhibitors of retroviral proteases” (Abbott Laboratories, priority 1989, dated 1998).

The test addresses T1, HIV protease (Human immunodeficiency virus type 1 group M subtype B, UniProt P04585).
T1 construct: HIV protease consists of 99 amino acids and is evidently split off by itself from the pol polyprotein
In words: Inhibition of HIV protease (cleavage of H-Ser-Phe-Asn-Phe-Opr-Gln-Ile-OH, HPLC). To be noted: inhibitor concentration at which the cleavage rate is halved; pH 6, 2 hours; read-out: IC50. In kind it is biochemical. In a few lines: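 Substrate H-Ser-Phe-Asn-Phe-Opr-Gln-Ile-OH in MGTE buffer (MES, glycerol, Triton X-100, PMSF, pH 6) preincubated with inhibitor at 37 °C for 5-10 min, then reacted with protease at 35 °C for 2 h. RP18 HPLC at 215 nm; tetrapeptide fraction gives cleavage rate, IC50 where rate is halved.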
For the molecule `CC[C@H](C)[C@H](NC(=O)[C@@H](N)Cc1ccccc1)C(=O)N[C@@H](Cc1ccccc1)[C@H](O)[C@@H](O)[C@H](Cc1ccccc1)NC(=O)[C@@H](NC(=O)[C@@H](N)Cc1ccccc1)[C@@H](C)CC` [Example 65, N,N'-bis-<L-Phenylalanyl-L-isoleucyl>-2S,5S-diamino-1,6-diphenylhexane-3S,4S-diol dihydrochloride], the IC50 turned out to be 1.8 nM.
As for `N[C@@H](Cc1ccccc1)C(=O)N[C@H](C(=O)N[C@@H](Cc1ccccc1)[C@@H](O)[C@H](O)[C@H](Cc1ccccc1)NC(=O)[C@@H](NC(=O)[C@@H](N)Cc1ccccc1)C1CCCCC1)C1CCCCC1` [Example 72, N,N'-bis-<L-Phenylalanyl-L-cyclohexylglycyl>-2S,5S-diamino-1,6-diphenylhexane-3R,4R-diol dihydrochloride], the figure is 30 nM; as for `CSCC[C@H](N)C(=O)N[C@H](C(=O)N[C@@H](Cc1ccccc1)[C@H](O)[C@@H](O)[C@H](Cc1ccccc1)NC(=O)[C@@H](NC(=O)[C@@H](N)CCSC)C(C)C)C(C)C` [Example 74, N,N'-bis-<L-Methionyl-L-valyl>-2S,5S-diamino-1,6-diphenylhexane-3S,4S-dioldihydrochloride], 1.7 nM.
The result for `CSCC[C@H](NC(=O)OC(C)(C)C)C(=O)N[C@H](C(=O)N[C@@H](Cc1ccccc1)[C@H](O)[C@@H](O)[C@H](Cc1ccccc1)NC(=O)[C@@H](NC(=O)[C@H](CCSC)NC(=O)OC(C)(C)C)C(C)C)C(C)C` [Example 75, N,N'-bis-<tert.-Butoxycarbonyl-L-methionyl-L-valyl>-2S,5S-diamino-1,6-diphenylhexane-3S,4S-diol] reads 19 nM; that for `COc1ccc(C[C@H](N)C(=O)N[C@H](C(=O)N[C@@H](Cc2ccccc2)[C@H](O)[C@@H](O)[C@H](Cc2ccccc2)NC(=O)[C@@H](NC(=O)[C@@H](N)Cc2ccc(OC)cc2)C(C)C)C(C)C)cc1` [Example 76, N,N'-bis-<(O-Methyltyrosyl-L-valyl>-2S,5S-diamino-1,6-diphenylhexane-3S,4S-dioldihydrochloride], 0.29 nM; that for `COc1ccc(C[C@H](NC(=O)OC(C)(C)C)C(=O)N[C@H](C(=O)N[C@@H](Cc2ccccc2)[C@H](O)[C@@H](O)[C@H](Cc2ccccc2)NC(=O)[C@@H](NC(=O)[C@H](Cc2ccc(OC)cc2)NC(=O)OC(C)(C)C)C(C)C)C(C)C)cc1` [Example 77, N,N'-bis-<tert.-Butoxycarbonyl-(O-methyltyrosyl)-L-valyl>-2S,5S-diamino-1,6-diphenylhexane-3S,4S-diol], 9.2 nM.
The result for `CC(C)[C@H](NC(=O)[C@@H](N)Cc1ccc(O)cc1)C(=O)N[C@@H](Cc1ccccc1)[C@H](O)[C@@H](O)[C@H](Cc1ccccc1)NC(=O)[C@@H](NC(=O)[C@@H](N)Cc1ccc(O)cc1)C(C)C` [Example 78, N,N'-bis-<L-Tyrosyl-L-valyl>-2S,5S-diamino-1,6-diphenyl-hexane-3S,4S-dioldihydrochloride] reads 1.8 nM; that for `CC(C)[C@H](NC(=O)[C@H](CCCCNC(=O)OCc1ccccc1)NC(=O)OC(C)(C)C)C(=O)N[C@@H](Cc1ccccc1)[C@@H](O)[C@H](O)[C@H](Cc1ccccc1)NC(=O)[C@@H](NC(=O)[C@H](CCCCNC(=O)OCc1ccccc1)NC(=O)OC(C)(C)C)C(C)C` [Example 80], 28 nM.
As for `CC(C)[C@H](NC(=O)[C@@H](N)CCC(=O)O)C(=O)N[C@@H](Cc1ccccc1)[C@H](O)[C@@H](O)[C@H](Cc1ccccc1)NC(=O)[C@@H](NC(=O)[C@@H](N)CCC(=O)O)C(C)C` [Example 82, N,N,-bis-<L-Glutamyl-L-valyl>-2S,5S-diamino-1,6-diphenyl-hexane-3S,4S-dioldihydrochloride], the IC50 came to 9 nM.
As for `CC(C)[C@H](NC(=O)[C@H](CCC(=O)O)NC(=O)OC(C)(C)C)C(=O)N[C@@H](Cc1ccccc1)[C@H](O)[C@@H](O)[C@H](Cc1ccccc1)NC(=O)[C@@H](NC(=O)[C@H](CCC(=O)O)NC(=O)OC(C)(C)C)C(C)C` [Example 83, N,N,-bis-<tert.-Butoxycarbonyl-L-glutamyl-L-valyl>-2S,5S-diamino-1,6-diphenylhexane-3S,4S-diol], the figure is 10 nM; as for `CC(C)[C@H](NC(=O)[C@H](CCC(=O)OCc1ccccc1)NC(=O)OC(C)(C)C)C(=O)N[C@@H](Cc1ccccc1)[C@H](O)[C@@H](O)[C@H](Cc1ccccc1)NC(=O)[C@@H](NC(=O)[C@H](CCC(=O)OCc1ccccc1)NC(=O)OC(C)(C)C)C(C)C` [Example 84, N,N,-bis-<(N-tert.-Butoxycarbonyl-O-benzyl-L-glutamyl)-L-valyl>-2S,5S-diamino-1,6-diphenylhexane-3S,4S-diol], 110 nM.
As for `CC(C)[C@H](NC(=O)CN)C(=O)N[C@@H](Cc1ccccc1)[C@@H](O)[C@H](O)[C@H](Cc1ccccc1)NC(=O)[C@@H](NC(=O)CN)C(C)C` [Example 85, N,N'-bis-<Glycyl-L-valyl>-2S,5S-diamino-1,6-diphenyl-hexane-3R,4R-dioldihydrochloride], the IC50 came to 1.9 nM.
Turning to `CC(C)[C@H](NC(=O)CNC(=O)OC(C)(C)C)C(=O)N[C@@H](Cc1ccccc1)[C@@H](O)[C@H](O)[C@H](Cc1ccccc1)NC(=O)[C@@H](NC(=O)CNC(=O)OC(C)(C)C)C(C)C` [Example 86, N,N'-bis-<tert.-Butoxycarbonylglycyl-L-valyl>-2S,5S-diamino-1,6-diphenylhexane-3R,4R-diol], the IC50 is 2.2 nM.
As for `CC(C)C[C@H](N)C(=O)N[C@H](C(=O)N[C@@H](Cc1ccccc1)[C@H](O)[C@@H](O)[C@H](Cc1ccccc1)NC(=O)[C@@H](NC(=O)[C@@H](N)CC(C)C)C(C)C)C(C)C` [Example 87, N,N'-bis-<L-Leucyl-L-valyl>-2S,5S-diamino-1,6-diphenyl-hexane-3S,4S-dioldihydrochloride], the figure is 1.6 nM; as for `CC(C)C[C@H](NC(=O)OC(C)(C)C)C(=O)N[C@H](C(=O)N[C@@H](Cc1ccccc1)[C@H](O)[C@@H](O)[C@H](Cc1ccccc1)NC(=O)[C@@H](NC(=O)[C@H](CC(C)C)NC(=O)OC(C)(C)C)C(C)C)C(C)C` [Example 88, N,N'-bis-<tert.-Butoxycarbonyl-L-leucyl-L-valyl>-2S,5S-diamino-1,6-diphenylhexane-3S,4S-diol], 1000 nM; as for `CC(C)[C@H](NC(=O)[C@@H](N)CCS(C)(=O)=O)C(=O)N[C@@H](Cc1ccccc1)[C@@H](O)[C@H](O)[C@H](Cc1ccccc1)NC(=O)[C@@H](NC(=O)[C@@H](N)CCS(C)(=O)=O)C(C)C` [Example 89, N,N'-bis-<L-(S-Dioxo)methionyl-L-valyl>-2S,5S-diamino-1,6-diphenylhexane-3R,4R-diol dihydrochloride], 1.8 nM.
The result for `CC(C)[C@H](NC(=O)[C@H](CCS(C)(=O)=O)NC(=O)OC(C)(C)C)C(=O)N[C@@H](Cc1ccccc1)[C@@H](O)[C@H](O)[C@H](Cc1ccccc1)NC(=O)[C@@H](NC(=O)[C@H](CCS(C)(=O)=O)NC(=O)OC(C)(C)C)C(C)C` [Example 90, N,N'-bis-<tert.-Butoxycarbonyl-L-(S-dioxo)methionyl-L-valyl>-2S,SS-diamino-1,6-diphenylhexane-3R,4R-diol] reads 2.2 nM.
